Experimental data reported in patent US8691255B2, “Method of producing high alcohol content foaming compositions with silicone-based surfactants” (Deb Worldwide Healthcare Inc., priority 2005, dated 2014).

Test: Foam evaluation of the prepared solutions: foam produced or not, and foam description
Type: physicochemical
Conditions: alone, 40% ethanol, 3% CAPB; compared with 60% v/v ethanol and less than 1.0% silicone-based surfactants
Protocol: Examples 1 through 12 were prepared to illustrate the ability to produce alcohol-based disinfecting formulations which can be dispensed as foams using different surfactants and a solution of water and 50% ethanol. Examples 13 through 16 illustrate increasing concentrations of a silicone-based surfactant to produce foam with 40% ethanol. Examples 17 through 32 show increasing concentrations of ethanol with different silicone-based surfactants to produce foam. Examples 33 through 36 illustrate increasing concentrations of a silicone-based surfactant to produce acceptable foam at 62% ethanol. Examples 37 through 52 illustrate the ability to produce foam using different surfactants and a solution of 70% v/v Isopropanol. All parts and percentages are expressed by weight unless otherwise indicated.
The following examples were intended to evaluate the foaming ability of different groups of Silicon surfactants with different combinations of ethanol, n-propyl alcohol and Isopropyl alcohol. They were also designed to assess the effect in the after feel as well as in the foam quality of some emollients and humectants, lipids, and other cosmetic type desired ingredients to be used with a leave-on hand sanitizer product. […]
The solutions prepared, were evaluated as to whether foam was produced or not and if so, then the foam produced was described as follows: […]

foam results: unable to produce as good results
Substance: Cocamidopropyl betaine
